± gives the expanded uncertainty stated by the source.
Assay: refractive index (Na D-line) (dimensionless); xn = mol fraction of the nth substance listed
Details: 103 kPa, Liquid, Standard Abbe refractometry

C=C[Si](OC)(OC)OC [trimethoxy(vinyl)silane] + CO[Si](C)(OC)c1ccccc1
refractive index
Details	298.15 K	303.15 K	308.15 K	313.15 K	318.15 K
x2 = 0	1.39022 ± 0.004	1.38775 ± 0.004	1.38535 ± 0.004	1.3829 ± 0.004	1.38046 ± 0.004
x2 = 0.05	1.3954 ± 0.004	1.39299 ± 0.004	1.39056 ± 0.004	1.38815 ± 0.004	1.38572 ± 0.004
x2 = 0.1	1.40052 ± 0.004	1.39811 ± 0.004	1.39569 ± 0.004	1.39329 ± 0.004	1.39082 ± 0.004
x2 = 0.1499	1.40552 ± 0.004	1.40314 ± 0.004	1.40073 ± 0.004	1.3983 ± 0.004	1.39588 ± 0.004
x2 = 0.2	1.41045 ± 0.004	1.40807 ± 0.004	1.40568 ± 0.004	1.40327 ± 0.004	1.40083 ± 0.004
x2 = 0.2501	1.41527 ± 0.004	1.41288 ± 0.004	1.41047 ± 0.004	1.40809 ± 0.004	1.40568 ± 0.004
x2 = 0.2999	1.41998 ± 0.004	1.41762 ± 0.004	1.41524 ± 0.004	1.41284 ± 0.004	1.41043 ± 0.004
x2 = 0.35	1.42465 ± 0.004	1.42228 ± 0.004	1.41987 ± 0.004	1.4175 ± 0.004	1.4151 ± 0.004
x2 = 0.4001	1.42919 ± 0.004	1.42683 ± 0.004	1.42444 ± 0.004	1.42208 ± 0.004	1.41967 ± 0.004
x2 = 0.4501	1.43364 ± 0.004	1.43129 ± 0.004	1.42891 ± 0.004	1.42653 ± 0.004	1.42413 ± 0.004
x2 = 0.5	1.43793 ± 0.004	1.43559 ± 0.004	1.43321 ± 0.004	1.43084 ± 0.004	1.42843 ± 0.004
x2 = 0.5499	1.44232 ± 0.004	1.43996 ± 0.004	1.43759 ± 0.004	1.4352 ± 0.004	1.43283 ± 0.004
x2 = 0.6	1.44653 ± 0.004	1.44418 ± 0.004	1.44182 ± 0.004	1.43943 ± 0.004	1.43706 ± 0.004
x2 = 0.6499	1.45067 ± 0.004	1.44831 ± 0.004	1.44594 ± 0.004	1.44356 ± 0.004	1.4412 ± 0.004
x2 = 0.7	1.45459 ± 0.004	1.45224 ± 0.004	1.4499 ± 0.004	1.44754 ± 0.004	1.44517 ± 0.004
x2 = 0.75	1.45871 ± 0.004	1.45636 ± 0.004	1.454 ± 0.004	1.45165 ± 0.004	1.44929 ± 0.004
x2 = 0.8001	1.46249 ± 0.004	1.46015 ± 0.004	1.45778 ± 0.004	1.45542 ± 0.004	1.45307 ± 0.004
x2 = 0.8498	1.46647 ± 0.004	1.46413 ± 0.004	1.46178 ± 0.004	1.45942 ± 0.004	1.45707 ± 0.004
x2 = 0.8999	1.47026 ± 0.004	1.46791 ± 0.004	1.46557 ± 0.004	1.46321 ± 0.004	1.46087 ± 0.004
x2 = 0.9499	1.47397 ± 0.004	1.47163 ± 0.004	1.46928 ± 0.004	1.46693 ± 0.004	1.46458 ± 0.004

CCO[Si](C)(C)OCC [dimethyldiethoxysilane] + CO[Si](C)(OC)c1ccccc1
refractive index
Details	298.15 K	303.15 K	308.15 K	313.15 K	318.15 K
x2 = 0	1.38045 ± 0.004	1.37791 ± 0.004	1.37532 ± 0.004	1.37275 ± 0.004	1.37015 ± 0.004
x2 = 0.05	1.38569 ± 0.004	1.38315 ± 0.004	1.38057 ± 0.004	1.37799 ± 0.004	1.37541 ± 0.004
x2 = 0.1001	1.39089 ± 0.004	1.38836 ± 0.004	1.38582 ± 0.004	1.38325 ± 0.004	1.38071 ± 0.004
x2 = 0.1499	1.39601 ± 0.004	1.39351 ± 0.004	1.39097 ± 0.004	1.38844 ± 0.004	1.38592 ± 0.004
x2 = 0.2002	1.40114 ± 0.004	1.39865 ± 0.004	1.39614 ± 0.004	1.39362 ± 0.004	1.39108 ± 0.004
x2 = 0.2501	1.40622 ± 0.004	1.40372 ± 0.004	1.40124 ± 0.004	1.39874 ± 0.004	1.39625 ± 0.004
x2 = 0.3001	1.41123 ± 0.004	1.40874 ± 0.004	1.40626 ± 0.004	1.40376 ± 0.004	1.40129 ± 0.004
x2 = 0.3499	1.41623 ± 0.004	1.41376 ± 0.004	1.41131 ± 0.004	1.40883 ± 0.004	1.4064 ± 0.004
x2 = 0.4	1.42117 ± 0.004	1.41873 ± 0.004	1.41626 ± 0.004	1.41378 ± 0.004	1.41133 ± 0.004
x2 = 0.4499	1.42609 ± 0.004	1.42366 ± 0.004	1.42126 ± 0.004	1.41881 ± 0.004	1.41639 ± 0.004
x2 = 0.5	1.43096 ± 0.004	1.42854 ± 0.004	1.42613 ± 0.004	1.42369 ± 0.004	1.42133 ± 0.004
x2 = 0.55	1.43582 ± 0.004	1.4334 ± 0.004	1.43098 ± 0.004	1.42856 ± 0.004	1.42618 ± 0.004
x2 = 0.5999	1.44058 ± 0.004	1.43819 ± 0.004	1.43579 ± 0.004	1.43336 ± 0.004	1.43098 ± 0.004
x2 = 0.65	1.44535 ± 0.004	1.44296 ± 0.004	1.44058 ± 0.004	1.43819 ± 0.004	1.43582 ± 0.004
x2 = 0.6999	1.45008 ± 0.004	1.4477 ± 0.004	1.44531 ± 0.004	1.4429 ± 0.004	1.44055 ± 0.004
x2 = 0.75	1.45489 ± 0.004	1.45239 ± 0.004	1.45002 ± 0.004	1.44764 ± 0.004	1.44527 ± 0.004
x2 = 0.8	1.4594 ± 0.004	1.45703 ± 0.004	1.45464 ± 0.004	1.45227 ± 0.004	1.44991 ± 0.004
x2 = 0.8498	1.464 ± 0.004	1.46165 ± 0.004	1.45929 ± 0.004	1.45692 ± 0.004	1.45455 ± 0.004
x2 = 0.9	1.46859 ± 0.004	1.46623 ± 0.004	1.46388 ± 0.004	1.46153 ± 0.004	1.45918 ± 0.004
x2 = 0.95	1.47312 ± 0.004	1.47078 ± 0.004	1.46843 ± 0.004	1.46607 ± 0.004	1.46372 ± 0.004

CO[Si](C)(C)OC [dimethoxydimethylsilane] + CO[Si](C)(OC)c1ccccc1
refractive index
Details	298.15 K	303.15 K	308.15 K	313.15 K	318.15 K
x2 = 0	1.36816 ± 0.004	1.36559 ± 0.004	1.36297 ± 0.004	1.36035 ± 0.004	1.35771 ± 0.004
x2 = 0.0501	1.37551 ± 0.004	1.37295 ± 0.004	1.37035 ± 0.004	1.36774 ± 0.004	1.36513 ± 0.004
x2 = 0.1001	1.3826 ± 0.004	1.38005 ± 0.004	1.37748 ± 0.004	1.37492 ± 0.004	1.37233 ± 0.004
x2 = 0.15	1.38945 ± 0.004	1.38696 ± 0.004	1.38442 ± 0.004	1.3819 ± 0.004	1.37936 ± 0.004
x2 = 0.2	1.3961 ± 0.004	1.39364 ± 0.004	1.39111 ± 0.004	1.38864 ± 0.004	1.38612 ± 0.004
x2 = 0.25	1.40247 ± 0.004	1.40001 ± 0.004	1.39748 ± 0.004	1.39498 ± 0.004	1.39248 ± 0.004
x2 = 0.2999	1.40864 ± 0.004	1.40619 ± 0.004	1.40369 ± 0.004	1.40119 ± 0.004	1.3987 ± 0.004
x2 = 0.3499	1.41459 ± 0.004	1.41213 ± 0.004	1.40966 ± 0.004	1.40726 ± 0.004	1.4048 ± 0.004
x2 = 0.4001	1.42041 ± 0.004	1.41798 ± 0.004	1.41551 ± 0.004	1.41306 ± 0.004	1.41059 ± 0.004
x2 = 0.4501	1.42603 ± 0.004	1.42366 ± 0.004	1.42126 ± 0.004	1.41886 ± 0.004	1.41642 ± 0.004
x2 = 0.5001	1.43147 ± 0.004	1.42909 ± 0.004	1.42667 ± 0.004	1.42426 ± 0.004	1.42184 ± 0.004
x2 = 0.55	1.43672 ± 0.004	1.43435 ± 0.004	1.43195 ± 0.004	1.42958 ± 0.004	1.42718 ± 0.004
x2 = 0.6	1.44182 ± 0.004	1.43946 ± 0.004	1.43707 ± 0.004	1.43469 ± 0.004	1.43232 ± 0.004
x2 = 0.6499	1.44673 ± 0.004	1.44437 ± 0.004	1.44197 ± 0.004	1.43957 ± 0.004	1.43718 ± 0.004
x2 = 0.6999	1.45155 ± 0.004	1.4492 ± 0.004	1.44681 ± 0.004	1.44442 ± 0.004	1.44204 ± 0.004
x2 = 0.75	1.45621 ± 0.004	1.45386 ± 0.004	1.45148 ± 0.004	1.44913 ± 0.004	1.44677 ± 0.004
x2 = 0.7997	1.46072 ± 0.004	1.45837 ± 0.004	1.456 ± 0.004	1.45364 ± 0.004	1.45125 ± 0.004
x2 = 0.8499	1.46514 ± 0.004	1.46278 ± 0.004	1.46042 ± 0.004	1.45805 ± 0.004	1.45569 ± 0.004
x2 = 0.8999	1.46939 ± 0.004	1.46704 ± 0.004	1.46469 ± 0.004	1.46234 ± 0.004	1.45999 ± 0.004
x2 = 0.95	1.47356 ± 0.004	1.47121 ± 0.004	1.46886 ± 0.004	1.46651 ± 0.004	1.46417 ± 0.004

Reference: the NIST ThermoML archive (doi:10.1016/j.jct.2016.10.033)
